Data on one substance can be found in article PMC6358866 (International Journal of Molecular Sciences, 2019).

Common to all, as to assay type: cell-based
For test [1], the system named is Escherichia coli ATCC 25922 biofilm. The test can be described thus: Activity against biofilms formed on polystyrene 96-well plates, 24 h exposure, resazurin. As to conditions: polystyrene plate, 24 h exposure in MHB II. How it is done:
Bacterial strains were obtained from the Polish Collection of Microorganisms (Polish Academy of Science, Wroclaw, Poland). […] The bacteria were cultured in a Mueller Hinton Broth II (MHB, Biocorp, Warsaw, Poland) overnight, under aerobic conditions at 37 °C. After incubation, the liquid cultures were centrifuged (2500 rpm for 10 min) and washed with phosphoric buffer (PBS, AppliChem, Darmstadt, Germany) three times and resuspended in fresh MHB II for inoculums appropriate for the performed assays.
Bacterial suspensions were added to 96-well plates (Kartell, Noviglio, Italy) at initial inoculums of ca. 5 × 10^8 CFU/mL and incubated under aerobic conditions with shaking (120 rpm) at 37 °C for 24 h. […] After exposure, the wells were washed three times with PBS and a solution of resazurin (Sigma Aldrich, St. Louis, MO, USA) in MHB II (0.01%) was added. This cell viability reagent is metabolized by bacterial dehydrogenases upon contact with living cells. As a result, the blue dye is reduced to a pink resorufin. After 1.5 h of incubation, the absorbance was measured at 570 and 600 nm using a microplate reader (Thermo Fisher Scientific, Waltham, MA, USA). […] The metabolic activity of bacteria in the samples was measured according to the following formula:
Metabolic activity (%) = (ΔAbs of sample − ΔAbs of negative control)/(ΔAbs of positive control − ΔAbs of negative control);
ΔAbs = absorbance at 570 nm − absorbance at 600 nm;
The presented results are the means of nine results obtained on three different days.
(In general: Resazurin is reduced to fluorescent resorufin, in cell work by metabolically active cells.)

For test [2], the system named is Enterococcus faecalis ATCC 29212 biofilm on CLs. Nature of the test: Lipopeptide, lens liquids and combinations against biofilms on CLs after withdrawal of the antimicrobial solution. The conditions noted are these: EF biofilm on CLs, after withdrawal and 24 h in MHB II. The protocol:
(§1) Bacterial strains were obtained from the Polish Collection of Microorganisms (Polish Academy of Science, Wroclaw, Poland). Three Gram-positive and two Gram-negative strains linked with CL-related infections were chosen for the study (Staphylococus aureus ATCC 6538, Staphylococcus epidermidis ATCC 14990, Pseudomonas aeruginosa ATCC 9027, Escherichia coli ATCC 25922, and Enterococcus faecalis ATCC 29212). The bacteria were cultured in a Mueller Hinton Broth II (MHB, Biocorp, Warsaw, Poland) overnight, under aerobic conditions at 37 °C. After incubation, the liquid cultures were centrifuged (2500 rpm for 10 min) and washed with phosphoric buffer (PBS, AppliChem, Darmstadt, Germany) three times and resuspended in fresh MHB II for inoculums appropriate for the performed assays.
(§2) Bacterial biofilms were cultured on commercially available CLs (1-Day Acuvue Moist, containing Etafilcon A, obtained from Johnson and Johnson Vision Care, Jacksonsville, FL, USA). The CLs were placed in polystyrene 24-well plates (Orange Scientific, Braine-l’Alleud, Belgium) in bacterial suspensions in MHB II at initial inoculums of ca. 5 × 10^8 CFU/mL. After 24 h of incubation (aerobic conditions, 120 rpm shaking, 37 °C), all of the CLs were rinsed three times with PBS. […] After incubation, resazurin was added (final concentration per sample = 0.01%) and absorbance was measured as in the assays 4.3 and 4.4. Positive controls contained CLs with bacterial biofilms placed in pure PBS, while sterile CLs incubated in MHB II replaced with PBS served as negative controls. The experiments were performed in triplicate on three different days.
(§3) The assay was also performed for the samples where biofilms on CLs were exposed to pure CL solutions. Positive controls (100%) were biofilms on CLs in PBS, while negative controls were CLs previously incubated in pure MHB II replaced for the exposure time with PBS. After 24 h of exposure (aerobic conditions, 120 rpm shaking, 37 °C) all the solutions were removed, replaced with MHB II and the samples were incubated for another 24 h. Resazurin was then added in order to visualize the results. The results were read, calculated, and presented as in the previously-described sections.

Test [3] has as its system Escherichia coli ATCC 25922 biofilm on CLs. The description is as above. As to conditions: EC biofilm on CLs, all tested concentrations, after withdrawal and 24 h in MHB II. How it is done: as §1, §2, §3
Test [4] concerns Pseudomonas aeruginosa ATCC 9027 biofilm on CLs. Described as above. As to conditions: PA biofilm on CLs, all tested concentrations, after withdrawal and 24 h in MHB II. The protocol: as §1, §2, §3
Test [5] relates to Staphylococcus epidermidis ATCC 14990 biofilm on CLs. Described as above. The conditions noted are these: SE biofilm on CLs, lipopeptide in PBS, after withdrawal and 24 h in MHB II. The protocol:
as §1, §2, §3

Take (C10)2-KKKK-NH2 [Lipopeptide]: the “MBEC 50” value in test [1] (lowest concentration reducing metabolic activity by at least 50 ± 5%) is 64 mg/L. Further, in test [1] (lowest concentration reducing metabolic activity by at least 90 ± 5%, mean of nine results), the “MBEC 90” value is given as 64 mg/L. Besides, the “effect on biofilm after removal of the agent” value in test [2] is “promoted bacterial growth”. Further, the “regrowth of bacterial population after removal” value was “ca. 50%” in test [3] and “fully restored” in test [4]. Moreover, in test [5], the “concentration permanently removing biofilm from CLs” value stood at 16 mg/L.
